Data from US20230203096A1, “EPHA4 TARGETING COMPOUNDS AND METHODS OF USE THEREOF” (priority 2020, published 2023).
Like-named read-outs stand apart in the source and are kept apart here. Square brackets hold non-standard residues; d marks the D form. Peptide text beside a SMILES is read from it. * marks the point of attachment. Phe(4-(2-MeO-Ph)) = COc1ccccc1-c1ccc(C[C@H](N)C(=O)O)cc1; Cyclohexanoyl(1S,3S-3-NH2) = N[C@H]1CCC[C@H](C(=O)*)C1; Trp(5-OMe) = COc1ccc2[nH]cc(C[C@H](N)C(=O)O)c2c1; Trp(5-OH) = N[C@@H](Cc1c[nH]c2ccc(O)cc12)C(=O)O; NHPh(4-CH2-morpholino) = c1cc(N*)ccc1CN1CCOCC1; NH(4-morpholinophenyl) = c1cc(N2CCOCC2)ccc1N*; Bip = N[C@@H](Cc1ccc(-c2ccccc2)cc1)C(=O)O; hArg = N=C(N)NCCCC[C@H](N)C(=O)O; X2 = Fc1cc(N*)ccc1N1CCOCC1; X3 = c1cc(N2CCNCC2)ccc1N*

How the values were obtained:
[1] = biological target: T1, recombinant EphA4 ligand binding domain (Homo sapiens, UniProt P54764, C204A); test: Isothermal titration calorimetry (ITC) against EphA4-LBD
T1 construct: His tag (N); made in house; host or cells: E. coli Rosetta-Gami B(DE3), pET15b
T1 sequence (P54764 29-209 C204A): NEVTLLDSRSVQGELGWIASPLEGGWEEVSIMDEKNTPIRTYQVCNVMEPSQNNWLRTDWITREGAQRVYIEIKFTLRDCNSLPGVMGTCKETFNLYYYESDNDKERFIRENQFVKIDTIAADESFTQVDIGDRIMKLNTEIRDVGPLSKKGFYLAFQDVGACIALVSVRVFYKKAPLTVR
Procedure: (§1) Peptides were synthesized by using standard solid-phase synthesis protocol, using the BAL resin as anchoring for the C-terminal amines. Isothermal Titration Calorimetry (ITC) measurements were performed in a reverse fashion by titrating the protein into the ligand solution. Solution nuclear magnetic resonance (NMR) experiments were conducted on a 700 MHz Bruker Avance spectrometer equipped with a TCI cryoprobe. Each protein sample was dissolved into an NMR tube at a final concentration of 20 μM (1% DMSO-d6) in the presence of 20 μM of each compound.
The fragments were transformed into Rosetta-Gami B(DE3) competent cells and grown in LB medium at 37° C. with 100 μg/mL of ampicillin until reaching an OD600 of 0.6-0.7 followed by induction with 0.4 mM IPTG overnight at 20° C. Bacteria were then collected by centrifugation and lysed by sonication at 4° C. […] EphA4 LBD with ^13C^ε/^1H^ε-Met labeled was expressed like previously described but adding a suspension of 100 mg of ^13C^ε/^1H^ε-Methionine in 1 mL of DMSO per liter of LB medium, 10 minutes before induction. […] Transformation, expression, and purification of EphA3-LBD chimera was performed as described above for EphA4-LBD.
Isothermal titration calorimetry (ITC) measurements were performed using the Affinity ITC Autosampler from TA Instruments (New Castle, Del.). The titrations were performed in a reverse fashion by titrating the protein into the ligand solution. […] The syringe was filled with a 100 μM solution of EphA4-LBD, EphA3-LBD Chimera, or EphA2-LBD, and 20 injections of 2.5 μL each were performed into the cell containing a 20 μM solution of the compounds. The injections were made at 200 s or 400 s intervals with a stirring speed of 75 rpm. All the solutions were kept in the autosampler at 4° C. The analysis of the thermodynamics signatures and for dissociation constant determination was performed by the NanoAnalyze software (TA Instruments, New Castle, Del.) and subsequently exported into Microsoft Excel.

[2] = biological target: T2, ^13C^ε-Met-labeled EphA4-LBD (Homo sapiens, UniProt P54764, C204A); test: 2D [13C,1H] HSQC NMR chemical shift perturbation of Met resonances; assay type: binding; conditions: for Δδ ^13C^ϵ/^1H^ϵ Met 164: protein 20 μM, 20 μM of each compound; for Δδ Met 60 / Δδ Met 115 / Δδ Met 164: test ligands at 40 μM, EphA4-LDB at 20 μM, Table 8
T2 construct: His tag (N); made in house; host or cells: E. coli Rosetta-Gami B(DE3), pET15b
T2 sequence (P54764 29-209 C204A): as above
Procedure: as §1, with “Each protein sample was dissolved into an NMR tube at a final concentration of 20 μM (1% DMSO-d6) in the presence of 20 μM of each compound.” left out
2D [^13C,^1H] correlation NMR spectra measured with such protein targets, collected in absence or presence of test ligands can be used to monitor ligand binding and make, albeit qualitative, determinations on possible conformational changes induced by test ligands on the protein target. […] In targeting EphA4, an important aspect regarding the activity of its ligands is whether these agents could be predicted to work as antagonists or agonists.
NMR spectra were acquired on Bruker Avance III 700 MHz spectrometer equipped with a TCI cryoprobe. All NMR data were processed and analyzed using TOPSPIN 3.6.1 (Bruker, Billerica, Mass., USA).
Chemical shift changes (A) in the 2D [^13C, ^1H] spectra were calculated as weight average perturbations observed in the ^1H and ^13C dimensions using the following Equation: […]

[3] = Aqueous solubility; assay type: physicochemical
[4] = test system: mouse motor neurons co-cultured with iAstrocytes derived from sALS patients; test: Co-culture of sALS patient derived iAstrocytes and motor neurons (motor neuron survival); assay type: cell-based; conditions: 100 μM
From the text: EphA4 has been directly implicated in the progression of ALS in mice models and in human genetic studies. While the mechanisms for onset and progression of ALS remain largely undetermined, astrocytes have been implicated as significant contributors to motor neuron death in both in familial ALS (fALS), that is driven by inactivating mutations within the superoxide dismutase 1 (SOD1) gene and that account for less than 2% of all ALS cases, (Di Giorgio et al., Nat Neurosci, 10 (5): 608-614, (2007); Nagai et al., Nat Neurosci, 10 (5): 615-622, (2007); Yamanaka et al., Nat Neurosci, 11 (3): 251-253, (2008)) and the more common sporadic form of ALS (sALS). […] Recently, it was shown that astrocytes derived from both patient groups are similarly toxic to motor neurons (Haidet-Phillips et al., Nat Biotechnol, 29 (9): 824-828, (2011)).
Induced Astrocytes were generated by seeding a low quantity of NPCs into astrocyte medium (DMEM media containing 10% FBS and 0.2% N2) for five days. Following differentiation, iAstrocytes were lifted and seeded into a 96 well (10,000 cells per well).
Cells are sorted through a 100 micron tip with sheath pressure of 27. GFP+ motor neurons were seeded in a 96 well plate (10,000 cells per well). Co-cultures were imaged with InCell for up to three days. Motor neurons with neurite outgrowth of greater than 50 um were counted as alive.

[5] = test system: EphA4; conditions: reported previously; cited from earlier work
[6] = test system: SOD1(G93A) transgenic mice; conditions: SOD1(G93A) models, literature; cited from earlier work
[7] = ITC with the ligand binding domain, Table 8, read-out: Kd (nM) vs EphA4

Row | Compound | Kd [1] [nM] | -TΔS ([1]; ITC, EphA4-LBD) [kcal/mol] | AH ([1]; ITC, EphA4-LBD) [kcal/mol] | Δδ ^13C^ϵ/^1H^ϵ Met 164 [2] | Kd ([1]; ITC, EphA4-LBD, read-out: Kd (nM)- ITC) [nM] | Δδ Met 60 [2] | Δδ Met 115 [2] | Δδ Met 164 [2] | Aqueous Solubility [3] [mM] | protection of motor neurons from sALS astrocytes-induced death [4] | agonistic activity for EphA4 in primary cortical neurons [5] | disease onset / survival [6] | Kd [1, 7] [nM]
1 | N=C(N)NCCCC[C@H](NC(=O)[C@H](Cc1ccc(-c2ccccc2)cc1)NC(=O)[C@H](Cc1c[nH]c2ccc(O)cc12)NC(=O)[C@H]1CCC[C@H](N)C1)C(=O)NCC(=O)Nc1ccc(N2CCNCC2)cc1 [Compound 10] ({Cyclohexanoyl(1S,3S-3-NH2)}-[Trp(5-OH)][Bip][hArg]G-X3) | 90 | -1.35 | -8.27 | ++++ (++++ >0.25 ppm) | – | – | – | – | – | – | – | – | –
2 | COc1ccccc1-c1ccc(C[C@H](NC(=O)[C@H](Cc2c[nH]c3ccc(O)cc23)NC(=O)[C@H]2CCC[C@H](N)C2)C(=O)N[C@@H](CCCCNC(=N)N)C(=O)NCC(=O)Nc2ccc(N3CCOCC3)c(F)c2)cc1 [Compound 16] ({Cyclohexanoyl(1S,3S-3-NH2)}-[Trp(5-OH)][Phe(4-(2-MeO-Ph))][hArg]G-X2) | 127 | 0.58 | -10.00 | + (0< + <0.1 ppm) | – | – | – | – | – | – | – | – | –
3 | COc1ccccc1-c1ccc(C[C@H](NC(=O)[C@H](Cc2c[nH]c3ccc(O)cc23)NC(=O)[C@H]2CCC[C@H](N)C2)C(=O)N[C@@H](CCCCNC(=N)N)C(=O)NCC(=O)Nc2ccc(N3CCOCC3)cc2)cc1 [Compound 3, (1S,3S)-3-amino-N—((S)-1-(((S)-1-(((S)-6-guanidino-1-((2-((4-morpholinophenyl)amino)-2-oxoethyl)amino)-1-oxohexan-2-yl)amino)-3-(2′-methoxy-[1,1′-biphenyl]-4-yl)-1-oxopropan-2-yl)amino)-3-(5-hydroxy-1H-indol-3-yl)-1-oxopropan-2-yl)cyclohexane-1-carboxamide] ({Cyclohexanoyl(1S,3S-3-NH2)}-[Trp(5-OH)][Phe(4-(2-MeO-Ph))][hArg]G-{NH(4-morpholinophenyl)}) | – | -0.60 | -8.92 | + (0< + <0.1 ppm) | 106 | + (0< + <0.1 ppm) | + (0< + <0.1 ppm) | + (0< + <0.1 ppm) | >50 | – | – | – | –
4 | COc1ccc2[nH]cc(C[C@H](NC(=O)[C@H]3CCC[C@H](N)C3)C(=O)N[C@@H](Cc3ccc(-c4ccccc4OC)cc3)C(=O)N[C@@H](CCCCNC(=N)N)C(=O)NCC(=O)Nc3ccc(CN4CCOCC4)cc3)c2c1 [Compound 5] ({Cyclohexanoyl(1S,3S-3-NH2)}-[Trp(5-OMe)][Phe(4-(2-MeO-Ph))][hArg]G-{NHPh(4-CH2-morpholino)}) | 163 | -2.25 | -7.00 | ++ (0.1 ppm < ++ < 0.2 ppm) | – | – | – | – | – | – | – | – | –
5 | COc1ccc2[nH]cc(C[C@H](NC(=O)[C@H]3CCC[C@H](N)C3)C(=O)N[C@@H](Cc3ccc(-c4ccccc4)cc3)C(=O)N[C@@H](CCCCNC(=N)N)C(=O)NCC(=O)Nc3ccc(CN4CCOCC4)cc3)c2c1 [Compound 4] ({Cyclohexanoyl(1S,3S-3-NH2)}-[Trp(5-OMe)][Bip][hArg]G-{NHPh(4-CH2-morpholino)}) | 100 | -3.57 | -5.99 | +++ (0.2< +++ <0.25) | – | – | – | – | – | – | – | – | –
6 | COc1ccc2[nH]cc(CCNC(=O)[C@H](Cc3ccncc3)NC(=O)[C@H](Cc3ccc(Cl)cc3)NC(=O)[C@H](Cc3c[nH]c4ccc(O)cc34)NC(=O)CCCN)c2c1 [Compound 123C4, reference compound] | – | – | – | – | – | + (0< + <0.1 ppm) | + (0< + <0.1 ppm) | ++ (0.1 ppm < ++ <0.2 ppm) | – | to a lesser extent, 123C4 (at a higher concentration) were able to protect mouse motor neurons | induced receptor phosphorylation and growth cone collapse | significantly prolonged survival | –
7 | COc1ccccc1-c1ccc(C[C@H](NC(=O)[C@H](Cc2c[nH]c3ccc(O)cc23)NC(=O)[C@H]2CCC[C@H](N)C2)C(=O)N[C@@H](CCCCNC(=N)N)C(=O)NCC(=O)Nc2ccc(CN3CCOCC3)cc2)cc1 [Compound 2, (1S,3S)-3-amino-N—((S)-1-(((S)-1-(((S)-6-guanidino-1-((2-((4-(morpholinomethyl)phenyl)amino)-2-oxoethyl)amino)-1-oxohexan-2-yl)amino)-3-(2′-methoxy-[1,1′-biphenyl]-4-yl)-1-oxopropan-2-yl)amino)-3-(5-hydroxy-1H-indol-3-yl)-1-oxopropan-2-yl)cyclohexane-1-carboxamide] ({Cyclohexanoyl(1S,3S-3-NH2)}-[Trp(5-OH)][Phe(4-(2-MeO-Ph))][hArg]G-{NHPh(4-CH2-morpholino)}) | 75 | -0.97 | -8.74 | + (0< + <0.1 ppm) | – | ++ (0.1 ppm < ++ <0.2 ppm) | + (0< + <0.1 ppm) | + (0< + <0.1 ppm) | >50 | – | – | – | 77
8 | N=C(N)NCCCC[C@H](NC(=O)[C@H](Cc1ccc(-c2ccccc2)cc1)NC(=O)[C@H](Cc1c[nH]c2ccc(O)cc12)NC(=O)[C@H]1CCC[C@H](N)C1)C(=O)NCC(=O)Nc1ccc(CN2CCOCC2)cc1 [Compound 9, (1S,3S)—N—((S)-1-(((S)-3-([1,1′-biphenyl]-4-yl)-1-(((S)-6-guanidino-1-((2-((4-(morpholinomethyl)phenyl)amino)-2-oxoethyl)amino)-1-oxohexan-2-yl)amino)-1-oxopropan-2-yl)amino)-3-(5-hydroxy-1H-indol-3-yl)-1-oxopropan-2-yl)-3-aminocyclohexane-1-carboxamide] ({Cyclohexanoyl(1S,3S-3-NH2)}-[Trp(5-OH)][Bip][hArg]G-{NHPh(4-CH2-morpholino)}) | – | -1.90 | -7.44 | +++ (0.2< +++ <0.25) | – | ++ (0.1 ppm < ++ <0.2 ppm) | + (0< + <0.1 ppm) | +++ (0.2< +++ <0.25) | >50 | – | – | – | 144
